Measured values from patent publication US20040115160A1, “Quaternary ammonium esters for disinfection and preservation” (priority 2002, published 2004).

Tested on: Acanthamoeba polyphaga strain Ros cysts
Assay: Acanthamoeba contact lens disinfectant challenge test assay
Assay type: cell-based
Settings: 25 ppm
Protocol: Acanthamoeba polyphaga strain Ros were used in this study. Trophozoites were maintained at 30° C. in an axenic broth medium composed of 20.0 g Biosate™ (Becton Dickinson, United Kingdom), 5.0 g glucose, 0.3 g KH2PO4, 10 μg vitamin B12 and 15.0 mg L-methionine per litre of deionized water. The pH was adjusted to 6.5-6.6 with 1 M NaOH before autoclaving at 121° C. for 12 minutes. Penicillin and streptomycin were added to a final concentration of 150 μ/ml before use.
Cysts were prepared from trophozoite cultures using the axenic medium supplemented with 50 mM MgCl2. The encystment medium was inoculated with approximately 2×10^5 /ml trophoxoites for culture at 30° C. in a shaking incubator (100 rpm) for 7 days. Cells were enumerated using haemocytometer counting.
The challenge test assay protocol, as described by R. Hughes and S. Kilvington, Comparison of Hydrogen Peroxide Contact Lens Disinfection Systems and Solutions Against Acanthamoeba Polyphaga, Antimicrob. Agents Chemother. 45: 2038-2043, (2001), is set forth in detail below. The number of surviving organisms was calculated as described by L. J. Reed and H. Muench, A Simple Method for Estimating Fifty Percent Endpoints, Am. J. Hyg., 27: 493-497, (1938). Statistical analysis of the data was by One Way Analysis Of Variance (ANOVA).
1. Fifty ml polypropylene centrifuge tubes were aged overnight with 15 ml of disinfectant solution, i.e., ReNue™ 02 (Bausch & Lomb, Rochester, N.Y.). The tubes were then drained, the disinfectant solution discarded, and refilled with 10 ml of fresh disinfectant solution for testing.
2. To a flat-bottomed, 96 well microtitre plate having 8 columns labelled “A” through “H”, 180 μl of neutralizer, i.e., 0.1 percent Tween™ 80 (Baker, Inc., Phillipsburg, N.J.) in one-quarter strength Ringer's solution for biguanide based disinfectants, was added to the outer wells of columns A and H. 180 μl of one-quarter strength Ringer's solution was then added to the remaining inner wells of columns B through G.
3. Amoebae were adjusted to 5×10^6 /ml in one-quarter strength Ringer's solution and 100 μl (5×10^5) was added to 10 ml of disinfectant (5×10^4 /ml) or saline control.
4. At time intervals of 0, 1, 2, 3, 4, 6 and 24 hours:
i. vortexed tubes 5 seconds;
ii. in quadruplet, removed 20 μl (1000 cells) and added to neutralizer wells for the given time-point (i.e., column A, rows 9-12) and made serial 10-fold dilutions across the microtitre plate (i.e., to column D, rows 9-12); and
iii. repeated for each time point.
5. One drop of live E. coli from 3 ml pastette (25 μl of approximately 5×10^7 bacteria/ml) was then added to each well.
6. The plate was then incubated at 32° C. for up to 7 days.
7. The plate was inspected daily for 7 days for the presence of amoebal growth, either trophozoite replication or excystment and trophozoite replication, in the wells.
8. The number of surviving organisms was then estimated at each time interval by Reed and Muench computation and set forth below in Table 3.

Row | Structure (SMILES) | Amoebae Log Kill, Cysts (1 Hr.) [Log] | Amoebae Log Kill, Cysts (4 Hr.) [Log]
1 | CCCCCCCCCCCCCC(=O)OCCC[N+](C)(C)CCCCC [Compound 11, N-myristoyloxypropyl-N,N-dimethyl-N-pentylammonium iodide] | 3.69 | 3.69
2 | CCCCCCCCCCCCCCCC(=O)OCCC[N+](C)(C)C [Compound 6, N-palmitoyloxypropyl-N,N,N-trimethylammonium iodide] | 0.46 | 3.54
3 | CCCCCCCCCCCCCC(=O)OCCC[N+](C)(C)CCC [Compound 9, N-myristoyloxypropyl-N,N-dimethyl-N-propylammonium iodide] | 3.69 | 4
4 | CCCCCCCCCCCCCC(=O)OCCC[N+](C)(C)CC [Compound 8, N-myristoyloxypropyl-N,N-dimethyl-N-ethylammonium iodide] | 1 | 4
5 | CCCCCCCCCCCCCC(=O)OCCC[N+](C)(C)CCCCCC [Compound 12, N-myristoyloxypropyl-N,N-dimethyl-N-hexylammonium iodide] | 3.54 | 3.54
